According to patent US5358946A, “Heterocycle-substituted amides, carbamates and ureas as agents for the treatment of atherosclerosis” (The Du Pont Merck Pharmaceutical Company, priority 1992, dated 1994):

How the values were obtained:
ACAT = target: T1, ACAT (Mus musculus, UniProt Q61263); test: Inhibition of cholesterol esterification in the murine macrophage-like cell line J774.A1; format: cell-based; details: J774.A1 cells, ac-LDL loaded, 14C-oleic acid pulse
T1 construct: endogenous in cells; host or cells: J774.A1 (murine macrophage-like)
T1 sequence (Q61263 1-540): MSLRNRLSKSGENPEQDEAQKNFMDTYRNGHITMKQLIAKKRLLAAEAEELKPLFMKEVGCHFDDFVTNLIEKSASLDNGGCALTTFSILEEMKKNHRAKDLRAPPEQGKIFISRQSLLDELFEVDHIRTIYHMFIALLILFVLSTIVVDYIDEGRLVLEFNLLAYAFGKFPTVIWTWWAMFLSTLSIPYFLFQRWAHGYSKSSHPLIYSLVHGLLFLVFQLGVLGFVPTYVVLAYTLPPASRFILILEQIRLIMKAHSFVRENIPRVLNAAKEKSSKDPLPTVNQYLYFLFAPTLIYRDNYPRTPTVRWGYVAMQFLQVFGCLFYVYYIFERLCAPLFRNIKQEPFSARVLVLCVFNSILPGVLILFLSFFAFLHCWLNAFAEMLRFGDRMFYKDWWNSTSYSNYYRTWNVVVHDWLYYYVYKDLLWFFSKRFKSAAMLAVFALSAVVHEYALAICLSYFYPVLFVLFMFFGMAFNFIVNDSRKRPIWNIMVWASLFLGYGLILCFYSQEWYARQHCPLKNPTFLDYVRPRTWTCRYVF
Protocol: The esterification of cholesterol was determined in the murine macrophage-like cell line J774.A1. Cells were seeded in 35 mm wells at a density of 300,000 cells per well in 2 mls of Dulbecco's Eagle Medium (DMEM) supplemented with 10% fetal bovine serum (FBS). Cells were incubated at 37° C. in an atmosphere of 5% CO2 and 93% humidity. After […] the media was changed to 0.68 mls 10% FBS-DMEM containing 34 μg of acetylated human low density lipoprotein (ac-LDL) to increase the intracellular concentration of cholesterol and promote esterification. At 41 hours, various inhibitors were added to the cells in DMSO (10 μl/ml maximum). At 43 hours, the cells were pulsed with 0.1 mM ^14 C-oleic acid (10,000 dpm/nmol) complexed with BSA (bovine serum albumin) to follow cholesterol ester formation. The experiment was terminated at 45 hours by washing the monolayers 3 times with 3 ml of Tris-buffered saline at 4° C. The lipids were extracted by incubating the monolayers with 1.5 ml of hexane: isopropanol (3:2, v/v) for 30 min. under gentle agitation. During this period, 10,000 dpm ^3 H-cholesterol oleate and 10 μg of unlabeled cholesteryl oleate, oleic acid, triolein and cholesterol were added as an […] standard and carriers. The organic solvent was removed and the cells were washed with an additional 1.0 ml of hexane: isopropanol which was combined with the original extract. The cells were allowed to dry overnight, digested with 2.0 ml of 0.2N sodium hydroxide for 1 hour and an aliquot of the solubilized protein used for protein determination using the Lowry method. […] Extracts were collected in scintillation vials to determine the amount of radioactivity. The conversion of oleic acid to cholesteryl ester in the control averaged 0.54 mmol/hour/mg protein and was increased upon the addition of ac-LDL to about 10.689±0.69 mmol/hour/mg protein.

[1] = target: T2, acyl-CoA: cholesterol acyltransferase (ACAT) (Rattus norvegicus, UniProt Q7TQM4); test: Inhibition of Acyl-CoA: Cholesterol Acyltransferase (ACAT) in hepatic microsomes (in vitro hepatic ACAT activity); format: biochemical, rat (male Sprague Dawley); details: 14C-oleoyl-CoA, 15 min preincubation at 37° C., pH 7.4, read-out: Inhibition of Cholesterol Esterification (IC50)
T2 construct: Microsomes were obtained by differential centrifugation; from tissue; host or cells: liver microsomes of male Sprague Dawley rats
T2 sequence (Q7TQM4 1-524): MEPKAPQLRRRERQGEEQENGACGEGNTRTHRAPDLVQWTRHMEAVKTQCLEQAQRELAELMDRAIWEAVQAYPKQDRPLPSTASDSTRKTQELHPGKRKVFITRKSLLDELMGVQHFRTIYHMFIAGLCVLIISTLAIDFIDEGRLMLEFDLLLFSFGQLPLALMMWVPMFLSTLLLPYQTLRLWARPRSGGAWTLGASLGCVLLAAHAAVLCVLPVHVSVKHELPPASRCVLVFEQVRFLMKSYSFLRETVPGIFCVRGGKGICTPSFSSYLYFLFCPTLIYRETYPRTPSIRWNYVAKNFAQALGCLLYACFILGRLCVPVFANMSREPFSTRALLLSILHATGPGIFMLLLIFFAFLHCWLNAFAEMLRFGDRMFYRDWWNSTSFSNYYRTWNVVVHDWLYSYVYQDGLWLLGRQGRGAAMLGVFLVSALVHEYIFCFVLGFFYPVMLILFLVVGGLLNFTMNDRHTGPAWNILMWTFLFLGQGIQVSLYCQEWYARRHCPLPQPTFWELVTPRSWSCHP
Protocol: The ability of the compounds to inhibit ACAT, the enzyme responsible for the intracellular synthesis of cholesteryl esters, was tested as follows. Male Sprague Dawley rats weighing 150-300 g, were fed rat chow ad libitum. The animals were fasted for twenty-four hours prior to being sacrificed by decapitation. The livers were perfused in situ with 50 ml of cold 0.25M sucrose, excised, and homogenized in three volumes of 0.1M phosphate buffer, pH 7.4, that contained 0.5 mM EDTA (ethylenediaminetetraacetic acid), 1.0 mM glutathione, 0.25M sucrose and […]. Microsomes were obtained by differential centrifugation; the supernatant from an initial spin at 15,000×g for 15 minutes was centrifuged at 105,000×g for 1 hour to pellet the microsomes. The microsomes were suspended in homogenization buffer, reisolated by centrifugation, and stored at -70° C. Microsomes were used within one month of preparation.
The control assay in a final volume of 200 μl consisted of 200 μg of microsomal protein, 75μ<^14 C-oleoyl-CoA (10,000 dpm/nmol) in 0.1M phosphate, pH 7.4, that contained 1 mM glutathione. Compounds were added in 5 μl of DMSO (dimethyl sulfoxide) and additional controls were run with DMSO only. All components, except the oleoyl-CoA, were preincubated for 15 min. at 37° C. prior to the initiation of the reaction by the addition of oleoyl-CoA. The assay was terminated after 10 min. by the addition of 4 ml of chloroform:methanol (2:1, v/v). 20,000 dpm of 3H-choledsteryl oleate and 10 μg of unlabeled cholesteryl oleate and oleic acid were added as an internal standard and carriers, respectively. After allowing 10 min. for lipid extraction, 0.8 ml of deionized water was added to separte the solution into two phases. The lower chloroform phase was collected, dried under nitrogen and resuspended in 2 ml of hexane:diethyl ether (97:3 v/v). The lipids were then loaded onto BAKERSBOND spe* silica gel columns. Extracts were collected in scintillation vials and counted for radioactivity. The specific activity of ACAT in the control incubation averaged 260 pmol/min/mg microsomal protein.

SMILES | IC50 (ACAT) [nM] | IC50 [1] [µM]
CCCCCCCN(CCOC(=O)CSc1nc(-c2ccc(OC)cc2)c(-c2ccc(OC)cc2)[nH]1)C(=O)Nc1ccc(F)cc1F [Example 422, N-[2-[2-(4,5-bis(4-methoxyphenyl)-1H-imidazol-2-ylthio)-acetoxy]-ethyl]-N'-(2,4-diflurophenyl)-N -heptyl-urea] | 2390 | 2.6
CCCCCCCN(CCNC(=O)CSc1nc(-c2ccc(OC)cc2)c(-c2ccc(OC)cc2)[nH]1)C(=O)Nc1ccc(F)cc1F [Example 432] | 800 | 3.75
